This assay deals with T1, methionine aminopeptidase-2 (MetAP2) (Homo sapiens, UniProt P50579).
T1 construct: made in house; host or cells: insect cells, baculovirus system (secreted, purified from culture supernatant)
The assay can be described thus: Inhibition of MetAP2 enzyme activity (96-well, Met-Ala-Ser substrate, L-amino acid oxidase/peroxidase/ortho-dianisidine, 450 nm). To be noted: IC50, recombinant MetAP2 4 μg/mL, pH 7.4, Met-Ala-Ser substrate, 20 minutes. Format: biochemical.

Counter-ions that a name gives are not always drawn.

T1 sequence (P50579 whole entry): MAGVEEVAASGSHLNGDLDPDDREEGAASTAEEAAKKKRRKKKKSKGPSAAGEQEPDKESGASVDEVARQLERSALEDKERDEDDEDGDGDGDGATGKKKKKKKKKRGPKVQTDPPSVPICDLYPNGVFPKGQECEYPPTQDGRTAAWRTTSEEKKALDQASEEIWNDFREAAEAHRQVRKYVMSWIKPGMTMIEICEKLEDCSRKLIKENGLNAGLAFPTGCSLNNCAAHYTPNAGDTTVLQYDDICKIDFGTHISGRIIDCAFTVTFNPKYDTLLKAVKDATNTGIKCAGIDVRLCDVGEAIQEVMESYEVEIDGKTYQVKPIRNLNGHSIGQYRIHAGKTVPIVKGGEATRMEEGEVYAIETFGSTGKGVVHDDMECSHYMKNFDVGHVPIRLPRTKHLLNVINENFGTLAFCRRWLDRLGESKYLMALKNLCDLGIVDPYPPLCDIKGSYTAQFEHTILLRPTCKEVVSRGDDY

With `C[C@H](NC(=O)C(O)[C@H](N)CC1CCCCC1)C(=O)OCc1ccccc1CS(=O)(=O)c1ccccc1` (stereo partly drawn) [Example 91, (2RS,3R)-3-Amino-2-hydroxy-4-cyclohexyl)butanoyl-L-alanine-2-((phenylsulfonyl)methyl)benzyl Ester Hydrochloride], the IC50 (in general, the concentration that inhibits the measured activity by half) turned out to be 2300 nM.
In the case of `CC(C)(Cc1ccc(F)cc1)NC(=O)C(O)[C@H](N)CC1CCCCC1` (mixture of isomers) [Example 227, (2RS,3R)-3-amino-4-cyclohexyl-N-(2-(4-fluorophenyl)-1,1-dimethylethyl)-2-hydroxybutanamide Hydrochloride], the IC50 was 880 nM.
Then `CCOC(=O)C1CCN(C(=O)C(O)[C@H](N)CC2CCCCC2)CC1` (stereo partly drawn) [Example 73, ((2RS,3R)-3-amino-2hydroxy-4-cyclohexyl)butanoyl-(ethylisonipecotate)amide hydrochloride], with 6800 nM.
Then `CCSCC[C@@H](N)C(O)C(=O)N[C@@H](C)C(=O)O` (some centres unmarked) [Example 34, hydrochloride], with 3100 nM; and `N[C@H](CC1CCCCC1)C(O)C(=O)NCCc1cccc(C(F)(F)F)c1` (mixture of isomers) [Example 200, (2RS,3R)-3-amino-4-cyclohexyl-2-hydroxy-N-(3-(trifluoromethyl)phenethyl)butanamide Hydrochloride], with 1500 nM.
Consider `CSCC[C@@H](N)C(O)C(=O)NCCc1ccccn1` (stereo partly drawn) [Example 10, (2RS,3R)-N-(2-(2-pyridyl)ethyl)-3-amino-2-hydroxy-5-(methylthio)pentanamidedihydrochloride], for which the IC50 came to 3600 nM.
On to `CC(C)OCCCNC(=O)C(O)[C@H](N)CC1CCCCC1` (mixture of isomers) [Example 213, (2RS,3R)-3-amino-4-cyclohexyl-2-hydroxy-N-(3-isopropoxypropyl)butanamide Hydrochloride], for which the IC50 came to 2600 nM.
Then `CC(C)(NC(=O)C(O)[C@H](N)CC1CCCCC1)C(=O)OCc1ccccc1` (some centres unmarked) [Example 89, Hydrochloride], with 6600 nM; and `N[C@H](CC1CCCCC1)C(O)C(=O)NC1CCCCC1` (mixture of isomers) [Example 206, (2RS,3R)-3-amino-N,4-dicyclohexyl-2-hydroxybutanamide Hydrochloride], with 10000 nM.
Then `Cc1ncc([N+](=O)[O-])n1CCNC(=O)C(O)[C@H](N)CC1CCCCC1` (stereo partly drawn) [Example 56, (2RS,3R) N-(2-methyl-5-nitroimidazole-ethyl) 3-amino-2-hydroxy-4-cyclohexyl)butanamide dihydrochloride], with 12000 nM; and `C[C@@H](COC(=O)c1ccccc1)NC(=O)C(O)[C@H](N)CC1CCCCC1` (stereo partly drawn) [Example 49, (2RS, 3R,2'S)-N-((2-benzoyloxypropyl)-3-amino-2-hydroxy-4-cyclohexyl)butanamide hydrochloride], with 2200 nM.
In the case of `N[C@H](CC1CCCCC1)C(O)C(=O)N[C@@H](CO)C(=O)OCc1ccc([N+](=O)[O-])cc1` (stereo partly drawn) [Example 138, 4-nitrobenzyl (2RS,3R,2'S)-2-((3-amino-4-cyclohexyl-2-hydroxybutanoyl)amino-3-hydroxypropanoate trifluoroacetate] it was 1600 nM; in that of `COc1ccccc1NC(=O)C(O)[C@H](N)CC1CCCCC1` (mixture of isomers) [Example 146, (2RS,3R)-3-amino-4-cyclohexyl-2-hydroxy-N-(2-methoxyphenyl)butanamide], 1500 nM; in that of `COc1ccc([N+](=O)[O-])cc1NC(=O)C(O)[C@H](N)CC1CCCCC1` (mixture of isomers) [Example 160, (2RS,3R)-3-amino-4-cyclohexyl-2-hydroxy-N-(2-methoxy-5-nitrophenyl)butanamide hydrochloride], 900 nM.
Turning to `N[C@H](CC1CCCCC1)C(O)C(=O)NCCCn1ccnc1` (stereo partly drawn) [Example 74, ((2RS,3R)-3-amino-2-hydroxy-4-cyclohexyl)butanoyl-(3-imidazolylpropyl)amidedihydrochloride], the IC50 was 30000 nM.
With `CCSCC[C@@H](N)C(O)C(=O)NCCCCc1ccccc1` (stereo partly drawn) [Example 13, (2RS,3R)-N-(4-phenyl)butyl)-3-amino-2-hydroxy-5-(ethylthio)pentanamide hydrochloride], the IC50 was 1100 nM.
In the case of `CC(C)(C)c1ccc(NC(=O)C(O)[C@H](N)CC2CCCCC2)cc1` (some centres unmarked) [Example 150] it was 3100 nM; in that of `CSCC[C@@H](N)C(O)C(=O)O` (mixture of isomers) [Example 18, (2RS,3R)-3-amino-2-hydroxy-5-(methylthio)pentanoic acid], 150 nM; in that of `C[C@H](NC(=O)C(O)[C@H](N)Cc1ccccc1)C(=O)OCc1ccccc1` (some centres unmarked) [Example 105, Hydrochloride], 19000 nM.
Then `CCCCCC(C)NC(=O)C(O)[C@H](N)CC1CCCCC1` (mixture of isomers) [Example 212, (2RS,3R)-3-amino-4-cyclohexyl-2-hydroxy-N-(1-methylhexyl)butanamide Hydrochloride], with 1700 nM; and `CSCC[C@@H](N)C(O)C(=O)NCCCCc1ccccc1` (mixture of isomers) [Example 7, (2RS,3R)-N-(4-phenylbutyl)-3-amino-2-hydroxy-5-(methylthio)pentanamide hydrochloride], with 2000 nM; and `CCOc1ccc(OCC)c(NC(=O)C(O)[C@H](N)CC2CCCCC2)c1` (mixture of isomers) [Example 181, (2RS,3R)-3-amino-4-cyclohexyl-N-(2,5-diethoxyphenyl)-2-hydroxybutanamide hydrochloride], with 9800 nM.
Then `COc1ccc2[nH]cc(CCNC(=O)C(O)[C@H](N)CC3CCCCC3)c2c1` (some centres unmarked) [Example 58], with 3500 nM; and `Cc1ccc(S(=O)(=O)NCCCCNC(=O)C(O)[C@H](N)CC2CCCCC2)cc1` (stereo partly drawn) [Example 80, (2RS,3R)-3-amino-2-hydroxy-4-cyclohexyl)butanoyl-(4-(4-toluenesulfonyl)aminobutyl)amide hydrochloride], with 1300 nM.
Regarding `CCOc1cccc(NC(=O)C(O)[C@H](N)CC2CCCCC2)c1` (mixture of isomers) [Example 224, (2RS,3R)-3-amino-4-cyclohexyl-N-(3-ethoxyphenyl)-2-hydroxybutanamide Hydrochloride], the IC50 came to 430 nM.
For `CN(C)c1cccc2c(S(=O)(=O)NCCCCCNC(=O)C(O)[C@H](N)CC3CCCCC3)cccc12` (stereo partly drawn) [Example 55, (2RS,3R) N-(monodansylcadaverenyl-3-amino-2-hydroxy-4-cyclohexyl)butanamidedihydrochloride], the IC50 was found to be 2700 nM.
Regarding `CCOC(=O)CCNC(=O)C(O)[C@H](N)CCSCC` (stereo partly drawn) [Example 14, (2RS,3R)-N-(3-(carboethoxy)ethyl)-3-amino-2-hydroxy-5-(ethylthio)pentanamide hydrochloride], the IC50 worked out at 720 nM.
For `CCOC(=O)[C@H](CO)NC(=O)C(O)[C@H](N)CC1CCCCC1` (stereo partly drawn) [Example 46, (2RS,3R,1'S)-N-((2-hydroxy-1-ethoxycarbonylethyl)-3-amino-2-hydroxy-4-cyclohexyl)butanamide hydrochloride], the IC50 stood at 1100 nM.
Turning to `COc1ccc(NC(C)=O)cc1NC(=O)C(O)[C@H](N)CC1CCCCC1` (mixture of isomers) [Example 178, (2RS,3R)-N-(5-(acetylamino)-2-methoxyphenyl)-3-amino-4-cyclohexyl-2-hydroxybutanamide hydrochloride], the IC50 amounted to 11000 nM.
For `C[C@H](NC(=O)C(O)[C@H](N)CC1CCCCC1)C(=O)Nc1cc([N+](=O)[O-])ccc1O` (stereo partly drawn) [Example 69, ((2RS,3R)-3-amino-2-hydroxy-4-cyclohexyl)butanoyl-L-alanyl-(2-hydroxy-5-nitrophen-1-yl)amide hydrochloride], the IC50 worked out at 5300 nM.
Then `CCOC(=O)CCCNC(=O)C(O)[C@H](N)Cc1ccccc1` (mixture of isomers) [Example 21, (2RS,3R)-N-(3-(carboethoxy)propyl)-3-amino-2-hydroxy-4-phenyl-butanamide hydrochloride], with 14000 nM; and `CSCC[C@@H](N)C(O)C(=O)NCCc1ccc(Oc2ccccc2)cc1` (mixture of isomers) [Example 11, (2RS,3R)-N-(2-(4-phenoxyphenyl)ethyl)-3-amino-2-hydroxy-5-(methylthio)pentanamide hydrochloride], with 2600 nM.
For `Cc1ccccc1NC(=O)C(O)[C@H](N)CC1CCCCC1` (mixture of isomers) [Example 171, (2RS,3R)-3-amino-4-cyclohexyl-2-hydroxy-N-(2-methylphenyl)butanamide hydrochloride], the IC50 amounted to 950 nM.
In the case of `N[C@H](CC1CCCCC1)C(O)C(=O)Nc1ccc(C(F)(F)F)cc1` (mixture of isomers) [Example 152, (2RS,3R)-3-amino-4-cyclohexyl-2-hydroxy-N-(4-(trifluoromethyl)phenyl)butanamide] it was 2400 nM.
As for `COc1cc(Cl)c(C)cc1NC(=O)C(O)[C@H](N)CC1CCCCC1` (mixture of isomers) [Example 176, (2RS,3R)-3-amino-N-(4-chloro-2-methoxy-5-methylphenyl)-4-cyclohexyl-2-hydroxybutanamide hydrochloride], the IC50 amounted to 3400 nM.
With `CCOc1ccccc1NC(=O)C(O)[C@H](N)CC1CCCCC1` (mixture of isomers) [Example 175, (2RS,3R)-3-amino-4-cyclohexyl-N-(2-ethoxyphenyl)-2-hydroxybutanamide hydrochloride], the IC50 stood at 2100 nM.
For the compound `N[C@H](CC1CCCCC1)C(O)C(=O)NCCCc1ccccc1` (mixture of isomers) [Example 109, (2RS,3R)-3-Amino-4-cyclohexyl-2-hydroxy-N-(3-phenylpropyl)butanamide Hydrochloride], the IC50 came out at 1700 nM.
In the case of `COc1ccc(CNC(=O)C(O)[C@H](N)CC2CCCCC2)cc1` (mixture of isomers) [Example 186, (2RS,3R)-3-amino-4-cyclohexyl-2-hydroxy-N-(4-methoxybenzyl)butanamide hydrochloride], the IC50 was 1100 nM.

(Values after patent US6242494A, “Substituted β-amino acid inhibitors of methionine aminopeptidase-2” (Abbott Laboratories, priority 1999, dated 2001).)
